target: T1, Metabotropic glutamate receptor 4 (Homo sapiens, UniProt Q14833); assay: Positive allosteric modulation of human mGluR4 expressed in CHO cells co-expressing Gqi5 assessed as increase in glutamate-induced calcium flux preincubated for 2.5 mins followed by glutamate addition by Fluo-4-AM dye based fluorescence assay; format: functional, cell-based; conditions: read-out: EC50
T1 sequence (Q14833 whole entry): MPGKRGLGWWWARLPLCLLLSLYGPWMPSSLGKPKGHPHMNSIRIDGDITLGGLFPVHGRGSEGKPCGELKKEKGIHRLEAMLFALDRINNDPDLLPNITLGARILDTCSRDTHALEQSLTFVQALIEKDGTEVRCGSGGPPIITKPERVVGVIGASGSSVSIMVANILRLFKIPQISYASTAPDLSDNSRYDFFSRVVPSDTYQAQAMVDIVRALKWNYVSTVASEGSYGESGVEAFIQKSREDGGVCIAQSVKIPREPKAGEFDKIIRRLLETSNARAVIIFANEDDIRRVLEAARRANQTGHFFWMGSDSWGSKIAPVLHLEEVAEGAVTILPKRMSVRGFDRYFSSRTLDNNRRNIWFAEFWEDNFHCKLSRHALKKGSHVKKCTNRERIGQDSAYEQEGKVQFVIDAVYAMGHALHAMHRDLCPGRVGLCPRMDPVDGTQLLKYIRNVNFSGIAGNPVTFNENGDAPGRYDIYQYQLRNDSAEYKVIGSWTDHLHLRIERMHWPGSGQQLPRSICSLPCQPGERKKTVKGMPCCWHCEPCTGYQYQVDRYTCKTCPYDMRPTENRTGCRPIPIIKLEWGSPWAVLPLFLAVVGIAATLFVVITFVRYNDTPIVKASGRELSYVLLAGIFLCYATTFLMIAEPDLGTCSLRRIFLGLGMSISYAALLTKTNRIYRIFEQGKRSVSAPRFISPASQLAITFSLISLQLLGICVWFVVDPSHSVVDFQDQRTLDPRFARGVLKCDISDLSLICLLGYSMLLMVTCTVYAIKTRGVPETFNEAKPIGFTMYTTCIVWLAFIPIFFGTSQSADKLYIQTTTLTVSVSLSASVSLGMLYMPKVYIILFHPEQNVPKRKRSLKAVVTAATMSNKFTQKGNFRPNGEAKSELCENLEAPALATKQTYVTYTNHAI

Row | Compound | EC50
1 | CCn1nc(Cl)c2cc(Nc3n[nH]c4cccnc34)ccc21 | 0.815 µM
2 | Cn1ncc2ccc(Nc3n[nH]c4cccnc34)cc21 | 0.257 µM
3 | Cn1ccc2cc(Nc3n[nH]c4cccnc34)ccc21 | 3.59 µM
4 | Cn1cnc2ccc(Nc3n[nH]c4cccnc34)cc21 | > 10 µM
5 | Cn1ncc2cc(Nc3n[nH]c4cccnc34)ccc21 | 0.87 µM
6 | Cn1nc(C2CC2)c2ccc(Nc3n[nH]c4nccnc34)cc21 | 0.0198 µM
7 | CCc1nn(C)c2cc(Nc3n[nH]c4cccnc34)ccc12 | 0.0379 µM
8 | [2H]C([2H])([2H])Cn1nc(C2CC2)c2ccc(Nc3n[nH]c4ncccc34)cc21 | 0.16 µM
9 | CCn1nc(C2CC2)c2ccc(Nc3n[nH]c4cccnc34)cc21 | 1.21 µM
10 | Cn1nc(C2CC2)c2ncc(Nc3n[nH]c4cccnc34)cc21 | 0.468 µM
11 | Cc1nn(C)c2cc(Nc3n[nH]c4cccnc34)ccc12 | 0.0781 µM
12 | Cn1nc(C(F)(F)F)c2ccc(Nc3n[nH]c4cccnc34)cc21 | 0.119 µM
13 | Cn1nc(C2(C)CC2)c2ccc(Nc3n[nH]c4ncccc34)cc21 | 0.129 µM
14 | Cn1nc(C(=O)NC2CC(F)C2)c2ccc(Nc3n[nH]c4cccnc34)cc21 (centres undefined) | 0.794 µM
15 | Cn1nc(C(=O)N2CCCC2)c2ccc(Nc3n[nH]c4cccnc34)cc21 | 0.827 µM
16 | Cn1nc(C2(C)CC2)c2ccc(Nc3n[nH]c4cccnc34)cc21 | 0.0679 µM
17 | Cn1nc(C(=O)NC2CCC2)c2ccc(Nc3n[nH]c4cccnc34)cc21 | 0.653 µM

test system: not listed separately; assay: Fraction unbound in human plasma; format: ADME, cell-free; conditions: not given

Row | Compound | fraction unbound
18 | Fc1ccc(Nc2n[nH]c3cccnc23)cc1Cl | 0.017
19 | Cn1ncc2ccc(Nc3n[nH]c4cccnc34)cc21 | 0.093
20 | Cn1ncc2cc(Nc3n[nH]c4cccnc34)ccc21 | 0.118
21 | Cn1nc(C2CC2)c2ccc(Nc3n[nH]c4nccnc34)cc21 | 0.03
22 | Cc1nn(C)c2cc(Nc3n[nH]c4cccnc34)ccc12 | 0.058

test system: not listed separately; assay: Clearance in rat liver microsomes; format: ADME, microsome; conditions: not given

Row | Compound | CLhep predicted
23 | Fc1ccc(Nc2n[nH]c3cccnc23)cc1Cl | 0.726 L/h/kg
24 | Cn1ncc2ccc(Nc3n[nH]c4cccnc34)cc21 | 0.642 L/h/kg
25 | Cn1ncc2cc(Nc3n[nH]c4cccnc34)ccc21 | 2.41 L/h/kg
26 | Cn1nc(C2CC2)c2ccc(Nc3n[nH]c4nccnc34)cc21 | 1.34 L/h/kg
27 | Cc1nn(C)c2cc(Nc3n[nH]c4cccnc34)ccc12 | 1.12 L/h/kg

target: T2, Cytochrome P450 1A2 (Homo sapiens, UniProt P05177); assay: Inhibition of CYP1A2 in human liver microsomes; format: ADME; conditions: not given
T2 sequence (P05177 whole entry): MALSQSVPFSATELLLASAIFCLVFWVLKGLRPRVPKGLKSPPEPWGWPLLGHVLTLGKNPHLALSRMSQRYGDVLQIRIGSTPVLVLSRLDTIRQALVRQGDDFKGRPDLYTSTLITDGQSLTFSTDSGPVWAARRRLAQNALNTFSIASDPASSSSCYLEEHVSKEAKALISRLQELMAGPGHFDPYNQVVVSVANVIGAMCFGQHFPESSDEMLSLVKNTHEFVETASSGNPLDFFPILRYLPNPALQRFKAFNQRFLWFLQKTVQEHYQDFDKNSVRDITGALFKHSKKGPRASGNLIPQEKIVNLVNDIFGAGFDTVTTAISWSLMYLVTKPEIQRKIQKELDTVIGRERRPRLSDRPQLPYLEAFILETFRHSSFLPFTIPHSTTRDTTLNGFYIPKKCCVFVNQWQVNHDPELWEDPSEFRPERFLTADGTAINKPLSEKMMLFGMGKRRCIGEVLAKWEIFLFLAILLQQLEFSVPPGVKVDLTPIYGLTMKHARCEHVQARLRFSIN

Row | Compound | IC50
28 | Fc1ccc(Nc2n[nH]c3cccnc23)cc1Cl | < 0.1 µM
29 | Cn1ncc2ccc(Nc3n[nH]c4cccnc34)cc21 | 0.11 µM
30 | Cn1ncc2cc(Nc3n[nH]c4cccnc34)ccc21 | 0.53 µM
31 | Cn1nc(C2CC2)c2ccc(Nc3n[nH]c4nccnc34)cc21 | 0.48 µM
32 | Cc1nn(C)c2cc(Nc3n[nH]c4cccnc34)ccc12 | < 0.1 µM

target: T3, CYP1A2 (induction through the aryl hydrocarbon receptor, AhR) (Homo sapiens, UniProt P35869); assay: Activation of human AhR assessed as induction of CYP1A2 relative to control; format: ADME; conditions: read-out: FC
T3 sequence (P35869 whole entry): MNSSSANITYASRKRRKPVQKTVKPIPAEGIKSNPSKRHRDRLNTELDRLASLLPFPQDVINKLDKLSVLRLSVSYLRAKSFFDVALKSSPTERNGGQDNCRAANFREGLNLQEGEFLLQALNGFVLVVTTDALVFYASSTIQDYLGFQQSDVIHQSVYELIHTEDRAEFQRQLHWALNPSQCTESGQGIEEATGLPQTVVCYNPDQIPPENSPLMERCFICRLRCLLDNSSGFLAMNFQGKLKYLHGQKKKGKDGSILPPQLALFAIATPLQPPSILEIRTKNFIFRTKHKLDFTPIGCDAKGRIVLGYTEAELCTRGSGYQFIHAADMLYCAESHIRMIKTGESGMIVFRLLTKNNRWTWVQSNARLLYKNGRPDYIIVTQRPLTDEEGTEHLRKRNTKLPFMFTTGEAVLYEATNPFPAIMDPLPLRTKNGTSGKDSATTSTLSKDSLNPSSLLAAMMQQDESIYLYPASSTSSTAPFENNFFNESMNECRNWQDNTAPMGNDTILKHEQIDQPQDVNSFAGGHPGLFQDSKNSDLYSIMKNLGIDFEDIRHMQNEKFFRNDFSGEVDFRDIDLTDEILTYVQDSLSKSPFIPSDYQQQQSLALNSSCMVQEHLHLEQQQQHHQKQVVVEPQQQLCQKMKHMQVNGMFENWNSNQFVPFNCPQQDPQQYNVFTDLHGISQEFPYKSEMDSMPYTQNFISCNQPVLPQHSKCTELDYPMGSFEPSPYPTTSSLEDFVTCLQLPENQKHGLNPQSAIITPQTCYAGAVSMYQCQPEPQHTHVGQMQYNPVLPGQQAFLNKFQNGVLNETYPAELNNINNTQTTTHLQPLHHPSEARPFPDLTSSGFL

Row | Compound | fold induction
33 | Cn1ncc2ccc(Nc3n[nH]c4cccnc34)cc21 | 154
34 | Cn1ncc2cc(Nc3n[nH]c4cccnc34)ccc21 | 28
35 | Cn1nc(C2CC2)c2ccc(Nc3n[nH]c4nccnc34)cc21 | 2.3
36 | Cc1nn(C)c2cc(Nc3n[nH]c4cccnc34)ccc12 | 25

test system: not listed separately; assay: Fraction unbound in rat plasma; format: ADME, cell-free; conditions: not given

Row | Compound | fraction unbound
37 | Fc1ccc(Nc2n[nH]c3cccnc23)cc1Cl | 0.028
38 | Cn1ncc2ccc(Nc3n[nH]c4cccnc34)cc21 | 0.061
39 | Cn1ncc2cc(Nc3n[nH]c4cccnc34)ccc21 | 0.127
40 | Cn1nc(C2CC2)c2ccc(Nc3n[nH]c4nccnc34)cc21 | 0.035
41 | Cc1nn(C)c2cc(Nc3n[nH]c4cccnc34)ccc12 | 0.089

target: T1, Metabotropic glutamate receptor 4; assay: Positive allosteric modulation of human mGluR4 expressed in CHO cells co-expressing Gqi5 assessed as increase in glutamate-induced calcium flux at 30 uM preincubated for 2.5 mins followed by glutamate addition by Fluo-4-AM dye based fluorescence assay relative to PHCCC; format: functional, cell-based; conditions: not given

Row | Compound | Emax
42 | Cn1nc(OC2CCOCC2)c2ccc(Nc3n[nH]c4cccnc34)cc21 | 85.1%
43 | CCn1nc(Cl)c2cc(Nc3n[nH]c4cccnc34)ccc21 | 67%
44 | Cc1cc(COc2nn(C)c3cc(Nc4n[nH]c5cccnc45)ccc23)on1 | 107%
45 | Cn1nc(OCC2CCCCO2)c2ccc(Nc3n[nH]c4cccnc34)cc21 (centres undefined) | 100%
46 | Cn1ncc2ccc(Nc3n[nH]c4cccnc34)cc21 | 105%
47 | Cn1ccc2cc(Nc3n[nH]c4cccnc34)ccc21 | 83.8%
48 | Cn1cnc2ccc(Nc3n[nH]c4cccnc34)cc21 | 54.6%
49 | Cn1ncc2cc(Nc3n[nH]c4cccnc34)ccc21 | 110%
50 | Cn1nc(C2CC2)c2ccc(Nc3n[nH]c4nccnc34)cc21 | 101%
51 | CCc1nn(C)c2cc(Nc3n[nH]c4cccnc34)ccc12 | 94.5%
52 | CCn1nc(C2CC2)c2ccc(Nc3n[nH]c4cccnc34)cc21 | 36.2%
53 | Cn1nc(C2CC2)c2ncc(Nc3n[nH]c4cccnc34)cc21 | 75%
54 | Cc1nn(C)c2cc(Nc3n[nH]c4cccnc34)ccc12 | 98%
55 | Cn1nc(C(F)(F)F)c2ccc(Nc3n[nH]c4cccnc34)cc21 | 77.5%
56 | Cn1nc(C2(C)CC2)c2ccc(Nc3n[nH]c4ncccc34)cc21 | 84%
57 | CC(C)COc1nn(C)c2cc(Nc3n[nH]c4cccnc34)ccc12 | 86.7%
58 | Cn1nc(C(=O)NC2CC(F)C2)c2ccc(Nc3n[nH]c4cccnc34)cc21 (centres undefined) | 74%
59 | CC(C)Oc1nn(C)c2cc(Nc3n[nH]c4cccnc34)ccc12 | 70.9%
60 | Cn1nc(C(=O)N2CCCC2)c2ccc(Nc3n[nH]c4cccnc34)cc21 | 41.6%
61 | Cn1nc(C2(C)CC2)c2ccc(Nc3n[nH]c4cccnc34)cc21 | 83.7%
62 | Cn1nc(C(=O)NC2CCC2)c2ccc(Nc3n[nH]c4cccnc34)cc21 | 70.3%

same assay, conditions: tested as the 2H-labelled form

Row | Compound | Emax
63 | CCn1nc(C2CC2)c2ccc(Nc3n[nH]c4ncccc34)cc21 | 75.7%
64 | CCn1nc(C2CC2)c2ccc(Nc3n[nH]c4cccnc34)cc21 | 97.4%

Reference: ChEMBL document CHEMBL4229425, “Discovery and characterization of N-(1,3-dialkyl-1H-indazol-6-yl)-1H-pyrazolo[4,3-b]pyridin-3-amine scaffold as mGlu4 positive allosteric modulators that mitigate CYP1A2 induction liability” (Bioorg Med Chem Lett, 2018)
